Measured values taken from patent publication US6887983B2, “Purified 20 kDA presenilin 2 C-terminal fragment and methods of screening for compounds that inhibit proteolysis of presenilin 2” (The General Hospital Corporation, priority 1997, dated 2005).
Where a SMILES comes first, the peptide text is derived from it. The star is where a group is joined. Cbz = O=C(OCc1ccccc1)*; CH2F = FC*

Key:
polyubiquitinated PS2 = assay: Immunoprecipitation of ubiquitin-positive HMW-PS2 with anti-FLAG, anti-ubiquitin immunoblot; format: cell-based, human; conditions: 50 μM ALLN; C-terminal FLAG PS2; FIG. 5B
Procedure: (§1) FIG. 5. Polyubiquitination and proteasomal degradation of PS2. […] Detergent-soluble (Soluble) and detergent-resistant fractions (Insoluble) were prepared and analyzed by Western blotting. FIG. 5B) immunoprecipitation of ubiquitin-positive high molecular weight forms of PS2 (HMW-PS2) by anti-FLAG antibodies. […] FIG. SC) binding of PS2 modified with epitope-tagged ubiquitin (H6M-Ub) to nickel affinity columns. Plasmid pCW7 encoding wild-type (H6M-Ub) or pCW8 encoding dominant-negative ubiquitin (H6M-UbK48R) was transiently transfected into uninduced PS2 cells (clone WF2). […] Lysates were subjected to nickel affinity chromatography as described herein and bound materials were analyzed by Western blotting using anti-PS2Loop antibodies.
Protein samples were quantiated by the BCA protein assay kit (Pierce). SDS-PAGE was carried out using 4-20% gradient Tris-glycine gels under reducing conditions. Proteins were transferred to polyvinylidene difluoride membrane (Bio-Rad) using a semi-dry electrotransfer system (Hoefer). The blots were blocked with 5% non-fat dry milk in TBST (25 mM Tris (pH 7.6), 137 mM NaCl, 0.15% Tween 20) for 1.5 h, incbated primary antibodies (M2, 3 μg/ml; D-8, 1 to 1000; polyclonal anti-ubiquitin, 1 to 1000; Ubi-1, 1 to 1500) for 1.5 h, and secondary antibodies (horseradish perodixase-conjugated anti-mouse or rabbit antibodies, 1 to 5000) in TBST. […]

[1] = test system: polyubiquitinated HMW-PS2; assay: Nickel affinity chromatography of PS2 modified with His-tagged ubiquitin, anti-PS2Loop blot; format: cell-based, human; conditions: induced cells treated with ALLN
Procedure: as §1
PS2 cells were transiently transfected with ubiquitin constructs either pCW7 (H6M-Ub) or pCW8 (H6M-UbK48R) using LipofectAMINE™ according to the manufacturer's instruction (LifeTtechnologies, Inc.). […] Samples were concentrated by freeze-drying, and PS2 immunoreactivity was detected by Western blotting using anti-PS2Loop antibodies.
To determine whether polyubiquitinated HMW-PS2 serves as a degradation intermediate for the full-length PS2, constructs encoding wild-type (H6M-Ub) and dominant-negative ubiquitin (H6M-UbK48R), tagged with poly((6X)-histidine) were transiently transfected into uninduced cells. […]

[2] = test system: full-length 54 kDa PS2 cleavage; assay: Cleavage of full-length PS2 during etoposide-induced apoptosis in inducible H4 cells (N-terminal FLAG PS2); format: cell-based, human; conditions: increasing concentrations of inhibitor, 20 μM etoposide; FIG. 8
Procedure: FIG. 8. Cleavage of full-length 54 kDa PS2 by a zVAD-sensitive protease activated during etoposide-induced apoptosis. Inducible H4 cells expressing PS2 containing N-terminal FLAG epitope were induced for 12 hours and further incubated with media containing 20 μM etoposide. Alternative (34 kDa NTF) and normal (f; 30 kDa) N-terminal cleavage products detected by anti-FLAG antibody and alternative (20K CTF) and endogenous plus normal C-terminal cleavage products (e/f) detected by αPS2Loop were indicated by arrows.
Thus, whether the alternative PS2-CTF was generated from full-length 54 kDa PS2 during apoptosis was tested. […] The alternative NTF was 34 kDa while the “normal” NTF, labeled as band f in the top panel of FIG. 8, was 30 kDa. The alternative PS2 cleavage fragments were first observed at 3 hours post-treatment with etoposide.

[3] = test system: generation of alternative 14 kDa PS1-CTF; assay: Generation of alternative 14 kDa PS1-CTF in inducible H4 cells overexpressing PS1; format: cell-based, human; conditions: PS1-overexpressing cell lines
Procedure: FIG. 11. […] Inducible PS1 cells were generated similar to as described herein. High-(clone 1.22) and low-(clone 1.24) expressing clones were grown in the presence or absence of tetracycline for 24 hours. As similar to those shown for PS2, multiple PS1 CTFs were detected in the PS 1-overproducing cells, including 23 kDa endogenous PS1 CTF (arrow e′), transgene-derived normal cleavage product (arrow f′), and aberrant 14 kDa PS1 fragment. (b, c, d) Cleavage of endogenous PS1 CTF during STS-induced apoptosis. Identical samples used for FIG. 8 were stained with αPS1 Loop. PS1 CTF was further cleaved into smaller 14 kDa fragment during apoptotic process. […] Asterisk indicates non-specific bands.
The point mutations in the potential aspartate cleavage sites of PS2 (D326A and D329A) and control aspartate (D308A) were introduced into a PS2 open reading frame by site-directed mutagenesis using Muta-Gene phagemid kit (BioRad). The inducible construct encoding the full-length PS1 with 3′ FLAG epitope sequence was generated as described for PS2 herein. […]
Next, whether PS1, a closely related homologue of PS2, also undergoes alternative cleavage when overexpressed and/or during apoptosis was tested. […] However, in the clonal cell line expressing lower levels of PS1 (clone IF24), full-length PS1 and the normal CTF were predominantly detected while the alternative 14 kDa CTF fragment was not detectable.

[4] = test system: endogenous PS2 cleavage in H4 human neuroglioma cells; assay: Apoptotic cleavage of endogenous PS2 in untransfected H4 cells (staurosporine or etoposide), Western blot
Procedure: H4 human neuroglioma cells were treated with 1 μM STS for timed intervals indicated on the top panels and lysates were analyzed by Western blotting using αPS2Loop along with antibodies to poly(ADP-ribose) polymerase (PARP), CPP32, and HSP70. […] Cells were pre-treated with inhibitors for 1 hour, further incubated in the presence or absence of 2 μM STS (b) or 20 μM etoposide for 18 hours. and lysates were analyzed by Western blotting. […] (e) Dose-response curves of the effect of zVAD-fmk (Δ) and zDEVD-fmk (o) on STS-induced apoptotic cleavage of PS2. Relative amounts of 20 kDa PS2 fragments from the cells co-treated with 1 μM STS (18 hours) plus either zVAD-fmk or zDEVD-fmk were measured by the transmittance analysis of the Western blot as described (Bush, A. I., et al., Ann. Neurol. 32:57-65 (1992)). The amounts of 20 kDa fragment from the cells treated with STS alone were standardized as 100%. With the exception of (d) (4-20% gradient gel), all SDS-PAGE were performed using 16% gels.
(§2) For some experiments, protein quantitation, SDS-PAGE (4-20% or 16%) and Western blotting were carried out as described, supra, with the exception of using the lysis buffer (10 mM Tris-HCl [pH 7.4], 150 mM NaCl, 1% Triton X-100, 0.5% NP-40, 5 mM EDTA plus either 0.3% SDS or 1% Sarkosyl) with protease inhibitors, allowing for the efficient extraction of the 20 kDa C-terminal fragment from the detergent-resistant fractions.

endogenous PS1 cleavage = assay: Apoptosis-associated cleavage of endogenous PS1 in H4 cells; format: cell-based, human; conditions: STS- or etoposide-induced, FIGS. 11c and 11d
Procedure: FIG. 11. […] Inducible PS1 cells were generated similar to as described herein. High-(clone 1.22) and low-(clone 1.24) expressing clones were grown in the presence or absence of tetracycline for 24 hours. […] Identical samples used for FIG. 8 were stained with αPS1 Loop. […] Asterisk indicates non-specific bands.
Whether endogenous PS1 is cleaved by CP32-like proteases following induction of apoptosis was also tested.

[5] = test system: generation of the 20 kDa PS2-CTF; assay: Generation of 20 kDa PS2-CTF in H4 cells overexpressing PS2, Western blot with αPS2Loop; conditions: FIG. 7d; for generation of the 20 kDa PS2-CTF: cells overexpressing PS2, induced 24 h, inhibitor added at induction
Procedure: Aberrant 20 kDa PS2 C-terminal fragment (CTF) in transfected cells. (a) Detection of the endogenous PS2 CTF in human brain. […] (b) Detection of multiple PS2 CTFs in the inducible H4 cells overexpressing C-terminal epitope-tagged PS2 by Western blotting using αPS2Loop. […] (c) Selective localization of the 20 kDa CTF in the non-ionic detergent-resistant cellular fraction. Wild-type PS2 cells were induced for 48 hours, fractionated into detergent-insoluble/resistant (lane 2) and detergent soluble (lane 3) fractions and wash (lane 4), and then analyzed by Western blotting with αPS2Loop. Total SDS lysates are shown in lane 1. […] The zFA-fmk (cathepsin B inhibitor) was used as a control for fluoromethylketone (fmk) group. […] Inducible PS2 were grown in the presence (Uninduced, left panel) or absence (Induced, right panel) of tetracycline for 24 hours, and inhibitors or solvent (DMSO) were added at the time of the induction.
as §2

N-acetyl-L-leucinal-L-norleucinal [ALLN]
Ubiquitin-positive HMW-PS2 (polyubiquitinated PS2): significantly increased | polyubiquitinated HMW-PS2 bound to nickel column ([1]; transfected with H6M-Ub, FIG. 5C lane 10): abundant amounts of polyubiquitinated HMW-PS2 | polyubiquitinated HMW-PS2 bound to nickel column ([1]; transfected with dominant-negative H6M-UbK48R, FIG. 5C lane 12): a small amount of polyubiquitinated HMW-PS2

COC(=O)C[C@H](NC(=O)[C@H](C)NC(=O)[C@@H](NC(=O)OCc1ccccc1)C(C)C)C(=O)CF [zVAD-fmk] (Cbz-Val-Ala-Asp(OMe)-CH2F)
generation of both alternative PS2 cleavage products [2]: inhibited the generation of both alternative cleavage products | generation of alternative 14 kDa PS1-CTF [3]: blocked | concentration equally effective in inhibiting apoptosis-induced cleavage of PS2 ([4]; 1 μM STS 18 h, relative amount of 20 kDa fragment, FIG. 9e): 25 µM | normal processing of PS2 (generation of 25 kDa endogenous fragment) ([4]; H4 cells undergoing apoptosis): no effect on normal processing of PS2 | STS-induced or etoposide-induced cleavage of PS2, PARP, and pro-CPP32 ([4]; H4 cells, 2 μM STS or 20 μM etoposide 18 h, FIG. 9b, c): Inhibition of STS-induced (b) or etoposide-induced (c) cleavage of PS2, PARP, and pro-CPP32 | alternative cleavage of endogenous PS2 during staurosporine-induced or etoposide-induced apoptosis ([4]; H4 cells, inhibitor pre-treatment 1 h, 2 μM STS or 20 μM etoposide 18 h, FIGS. 9b-9d): specifically blocked | apoptosis-associated cleavage of endogenous PS1 (endogenous PS1 cleavage): Inhibition of STS-induced (c) and etoposide-induced (d) PS1 cleavage | apoptosis-associated cleavage of endogenous PS1 (endogenous PS1 cleavage; listed as zVAD): blocked | generation of the 20 kDa PS2-CTF [5]: blocked | generation of the 20 kDa PS2-CTF ([5]; listed as zVAD): blocked the generation of the 20 kDa PS2-CTF | levels of the endogenous 25 kDa CTF, the 26 kDa transgene-derived CTF, or other PS2 species ([5]; cells overexpressing PS2): no effect
